Data: patent publication US8536172B2, “Inhibitors of JNK” (Roche Palo Alto LLC, priority 2009, dated 2013)

Target: Human JNK2α2 (Homo sapiens (Human), UniProt P45984)
Assay: JNK assay in vitro: phosphorylation of GST-ATF2 (19-96) with [γ-33P] ATP, JNK2
Assay type: biochemical
Details: 1 nM enzyme, 1 μM ATF2, 8 μM ATP (Km), 30° C. 30 min
Description: JNK activity was measured by phosphorylation of GST-ATF2 (19-96) with [γ-^33P] ATP. […] Human JNK2α2 assay contains 1 nM enzyme, 1 μM ATF2, 8 μM ATP with 1 uCi [γ-^33P] ATP. Human JNK1α1 assay contains 2 nM enzyme, 1 μM ATF2, 6 μM ATP with 1 μCi [γ-^33P] ATP. Human JNK3 (Upstate Biotech #14-501M) assay contains 2 nM enzyme, 1 μM ATF2, 4 μM ATP with 1 μCi [γ-^33P] ATP. The enzyme assay was carried out in the presence or absence of several compound concentrations. JNK and compound were pre-incubated for 10 min., followed by initiation of the enzymatic reaction by adding ATP and the substrate. The reaction mixture was incubated at 30° C. for 30 min. At the end of incubation, the reaction was terminated by transferring 25 μl of the reaction mixture to 150 μl of 10% glutathione Sepharose® slurry (Amersham #27-4574-01) containing 135 mM EDTA. The reaction product was captured on the affinity resin, and washed on a filtration plate (Millipore, MABVNOB50) with phosphate buffered saline for six times to remove free radionucleotide. The incorporation of ^33P into ATF2 was quantified on a microplate scintillation counter (Packard Topcount). Compound inhibition potency on JNK was measured by IC50 value generated from ten concentration inhibition curves fitted into the 3-parameter model: % inhibition=Maximum/(1+(IC50/[Inhibitor])^slope). Data were analyzed on Microsoft Excel for parameter estimation.

Chain of Human JNK2α2 (P45984 whole entry): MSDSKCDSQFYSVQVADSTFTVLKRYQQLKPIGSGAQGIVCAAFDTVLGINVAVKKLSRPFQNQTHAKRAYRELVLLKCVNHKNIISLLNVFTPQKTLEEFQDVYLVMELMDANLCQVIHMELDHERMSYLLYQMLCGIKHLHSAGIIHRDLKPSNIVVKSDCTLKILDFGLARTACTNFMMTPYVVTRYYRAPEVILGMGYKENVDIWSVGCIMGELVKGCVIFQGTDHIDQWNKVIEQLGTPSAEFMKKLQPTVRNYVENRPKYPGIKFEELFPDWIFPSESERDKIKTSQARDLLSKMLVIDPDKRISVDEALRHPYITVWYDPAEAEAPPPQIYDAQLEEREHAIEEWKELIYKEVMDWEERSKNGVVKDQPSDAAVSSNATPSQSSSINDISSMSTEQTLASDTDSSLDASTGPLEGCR

Compound | IC50 [nM]
CS(=O)(=O)C1CCN(c2cccc3c2ccn3-c2ccnc(N[C@H]3CC[C@H](C(=O)N4CCn5ccnc5C4)CC3)n2)CC1 [Compound I-54, (5,6-Dihydro-8H-imidazo[1,2-a]pyrazin-7-yl)-(4-{4-[4-(4-methanesulfonyl-piperidin-1-yl)-indol-1-yl]-pyrimidin-2-ylamino}-cyclohexyl)-methanone] | 15.2
CCOC1CCN(C(=O)[C@H]2CC[C@H](Nc3nccc(-n4ccc5c(N6CCC(S(C)(=O)=O)CC6)cccc54)n3)CC2)CC1 [Compound I-30, (4-Ethoxy-piperidin-1-yl)-(4-{4-[4-(4-methanesulfonyl-piperidin-1-yl)-indol-1-yl]-pyrimidin-2-ylamino}-cyclohexyl)-methanone] | 82.7
CS(=O)(=O)C1CCN(c2cccc3c2ccn3-c2ccnc(N[C@H]3CC[C@H](C(=O)N4CCN(C5CC5)CC4)CC3)n2)CC1 [Compound I-47, (4-Cyclopropyl-piperazin-1-yl)-(4-{4-[4-(4-methanesulfonyl-piperidin-1-yl)-indol-1-yl]-pyrimidin-2-ylamino}-cyclohexyl)-methanone] | 29.6
CC(C)(C)N1CCN(C(=O)[C@H]2CC[C@H](Nc3nccc(-n4ccc5c(N6CCC(S(C)(=O)=O)CC6)cccc54)n3)CC2)CC1 [Compound I-48, (4-tert-Butyl-piperazin-1-yl)-(4-{4-[4-(4-methanesulfonyl-piperidin-1-yl)-indol-1-yl]-pyrimidin-2-ylamino}-cyclohexyl)-methanone] | 54.5
CS(=O)(=O)C1CCN(c2cccc3c2ccn3-c2ccnc(N[C@H]3CC[C@H](C(=O)N4CCN5CCCC5C4)CC3)n2)CC1 (some centres unmarked) [Compound I-52, (Hexahydro-pyrrolo[1,2-a]pyrazin-2-yl)-(4-{4-[4-(4-methanesulfonyl-piperidin-1-yl)-indol-1-yl]-pyrimidin-2-ylamino}-cyclohexyl)-methanone] | 21.8

Other lines, results leading:

IC50 [nM] | Compound
806 | N#CCC(=O)N1CCN(c2cccc3c2ccn3-c2ccnc(N[C@H]3CC[C@@H](O)C3)n2)CC1 [Compound I-58, 3-(4-{1-[2-((1S,3R)-3-Hydroxy-cyclopentylamino)-pyrimidin-4-yl]-1H-indol-4-yl}-piperazin-1-yl)-3-oxo-propionitrile]
177 | N#CCC(=O)N1CCN(c2cccc3c2ccn3-c2ccnc(N[C@H]3CCC[C@@H](O)C3)n2)CC1 [Compound I-35, 3-(4-{1-[2-((1S,3R)-3-Hydroxy-cyclohexylamino)-pyrimidin-4-yl]-1H-indol-4-yl}-piperazin-1-yl)-3-oxo-propionitrile]
525 | CC(=O)N1CCN(c2cccc3c2ccn3-c2ccnc(N[C@H]3CC[C@H](CN4CC[C@@H](O)C4)CC3)n2)CC1 [Compound I-29, 1-[4-(1-{2-[4-((R)-3-Hydroxy-pyrrolidin-1-ylmethyl)-cyclohexylamino]-pyrimidin-4-yl}-1H-indol-4-yl)-piperazin-1-yl]-ethanone]
59.8 | CS(=O)(=O)C1CCN(c2cccc3c2ccn3-c2ccnc(N[C@H]3CC[C@H](C(=O)N4CCN(C5CCC5)CC4)CC3)n2)CC1 [Compound I-49, (4-Cyclobutyl-piperazin-1-yl)-(4-{4-[4-(4-methanesulfonyl-piperidin-1-yl)-indol-1-yl]-pyrimidin-2-ylamino}-cyclohexyl)-methanone]
150 | N#CCC(=O)N1CCN(c2cccc3c2ccn3-c2ccnc(N[C@H]3CC[C@H](O)C3)n2)CC1 [Compound I-60, 3-(4-{1-[2-((1S,3S)-3-Hydroxy-cyclopentylamino)-pyrimidin-4-yl]-1H-indol-4-yl}-piperazin-1-yl)-3-oxo-propionitrile]
36 | CCN1CCN(C(=O)[C@H]2CC[C@H](Nc3nccc(-n4ccc5c(N6CCC(S(C)(=O)=O)CC6)cccc54)n3)CC2)CC1 [Compound I-46, (4-Ethyl-piperazin-1-yl)-(4-{4-[4-(4-methanesulfonyl-piperidin-1-yl)-indol-1-yl]-pyrimidin-2-ylamino}-cyclohexyl)-methanone]
